In brackets after ≈: the same amount, converted by molar mass.
Columns and labels:
Assay type in all cases: functional
Details in all cases: time 16-24 hrs
Staphylococcus aureus [1] = test: Antibacterial activity against methicillin-resistant Staphylococcus aureus USA300 LAC incubated for 16 to 24 hrs by broth microdilution assay
Enterococcus faecium [2] = test: Antibacterial activity against vancomycin-resistant Enterococcus faecium Efm-HS-08257 harboring VanM phenotype incubated for 16 to 24 hrs by broth microdilution assay
Enterococcus faecium [3] = test: Antibacterial activity against vancomycin-resistant Enterococcus faecium Efm-HS-0649 harboring VanA phenotype incubated for 16 to 24 hrs by broth microdilution assay
Acinetobacter baumannii [4] = test: Antibacterial activity against Acinetobacter baumannii ATCC19606 incubated for 16 to 24 hrs by broth microdilution assay
Acinetobacter baumannii [5] = test: Antibacterial activity against carbapenem-resistant Acinetobacter baumannii CRAB-1 clinical isolate incubated for 16 to 24 hrs by broth microdilution assay
Staphylococcus aureus [6] = test: Antibacterial activity against vancomycin-intermediate Staphylococcus aureus Mu50 incubated for 16 to 24 hrs by broth microdilution assay
Pseudomonas aeruginosa = test: Antibacterial activity against Pseudomonas aeruginosa PAO1 incubated for 16 to 24 hrs by broth microdilution assay
Enterococcus faecium [7] = test: Antibacterial activity against vancomycin-resistant Enterococcus faecium Efm-HS-vb01 harboring VanB phenotype incubated for 16 to 24 hrs by broth microdilution assay
Escherichia coli = test: Antibacterial activity against Escherichia coli AB1157 incubated for 16 to 24 hrs by broth microdilution assay
Enterococcus faecium [8] = test: Antibacterial activity against vancomycin-resistant Enterococcus faecium Efm-HS-vb02 harboring VanB phenotype incubated for 16 to 24 hrs by broth microdilution assay
Klebsiella pneumoniae = test: Antibacterial activity against Klebsiella pneumoniae KP-1 incubated for 16 to 24 hrs by broth microdilution assay

CN[C@H](CC(C)C)C(=O)N[C@H]1C(=O)N[C@@H](CC(N)=O)C(=O)N[C@H]2C(=O)N[C@H]3C(=O)N[C@H](C(=O)N[C@H](C(=O)NCCC[S+](C)CC(O)COc4ccccc4)c4cc(O)cc(O)c4-c4cc3ccc4O)[C@H](O)c3ccc(c(Cl)c3)Oc3cc2cc(c3O[C@@H]2O[C@H](CO)[C@@H](O)[C@H](O)[C@H]2O[C@H]2C[C@](C)(N)[C@H](O)[C@H](C)O2)Oc2ccc(cc2Cl)[C@H]1O.O=C([O-])C(F)(F)F (stereo partly specified)
MIC (Staphylococcus aureus [1]): 0.25 µg/mL | MIC (Enterococcus faecium [2]): 16 µg/mL | MIC (Enterococcus faecium [3]): 32 µg/mL | MIC (Acinetobacter baumannii [4]): 64 µg/mL | MIC (Acinetobacter baumannii [5]): > 128 µg/mL | MIC (Staphylococcus aureus [6]): 2 µg/mL | MIC (Pseudomonas aeruginosa): > 128 µg/mL | MIC (Enterococcus faecium [7]): 16 µg/mL | MIC (Escherichia coli): 16 µg/mL | MIC (Enterococcus faecium [8]): 4 µg/mL | MIC (Klebsiella pneumoniae): > 128 µg/mL

CC(C)C[C@H](C(=O)N[C@H]1C(=O)N[C@@H](CC(N)=O)C(=O)N[C@H]2C(=O)N[C@H]3C(=O)N[C@H](C(=O)N[C@H](C(=O)O)c4cc(O)cc(O)c4-c4cc3ccc4O)[C@H](O)c3ccc(c(Cl)c3)Oc3cc2cc(c3O[C@@H]2O[C@H](CO)[C@@H](O)[C@H](O)[C@H]2O[C@H]2C[C@](C)(N)[C@H](O)[C@H](C)O2)Oc2ccc(cc2Cl)[C@H]1O)N(C)CCC[S+](C)C[C@@H](O)COc1ccccc1.O=C([O-])C(F)(F)F (stereo partly specified)
MIC (Staphylococcus aureus [1]): 1 µg/mL | MIC (Enterococcus faecium [2]): 128 µg/mL | MIC (Enterococcus faecium [3]): > 128 µg/mL | MIC (Acinetobacter baumannii [4]): > 128 µg/mL | MIC (Acinetobacter baumannii [5]): > 128 µg/mL | MIC (Staphylococcus aureus [6]): 8 µg/mL | MIC (Pseudomonas aeruginosa): > 128 µg/mL | MIC (Enterococcus faecium [7]): 64 µg/mL | MIC (Escherichia coli): > 128 µg/mL | MIC (Enterococcus faecium [8]): 32 µg/mL | MIC (Klebsiella pneumoniae): > 128 µg/mL

CN[C@H](CC(C)C)C(=O)N[C@H]1C(=O)N[C@@H](CC(N)=O)C(=O)N[C@H]2C(=O)N[C@H]3C(=O)N[C@H](C(=O)N[C@H](C(=O)NCCC[S+](C)CC(O)COc4ccc(C(C)(C)C)cc4)c4cc(O)cc(O)c4-c4cc3ccc4O)[C@H](O)c3ccc(c(Cl)c3)Oc3cc2cc(c3O[C@@H]2O[C@H](CO)[C@@H](O)[C@H](O)[C@H]2O[C@H]2C[C@](C)(N)[C@H](O)[C@H](C)O2)Oc2ccc(cc2Cl)[C@H]1O.O=C([O-])C(F)(F)F (stereo partly specified)
MIC (Staphylococcus aureus [1]): ≤ 0.063 µg/mL | MIC (Enterococcus faecium [2]): 8 µg/mL | MIC (Enterococcus faecium [3]): 32 µg/mL | MIC (Acinetobacter baumannii [4]): 32 µg/mL | MIC (Acinetobacter baumannii [5]): 64 µg/mL | MIC (Staphylococcus aureus [6]): 1 µg/mL | MIC (Pseudomonas aeruginosa): > 128 µg/mL | MIC (Enterococcus faecium [7]): 16 µg/mL | MIC (Escherichia coli): 32 µg/mL | MIC (Enterococcus faecium [8]): 4 µg/mL | MIC (Klebsiella pneumoniae): > 128 µg/mL

CN[C@H](CC(C)C)C(=O)N[C@H]1C(=O)N[C@@H](CC(N)=O)C(=O)N[C@H]2C(=O)N[C@H]3C(=O)N[C@H](C(=O)N[C@H](C(=O)NCCC[S+](C)CC(O)COc4ccc(C(F)(F)F)cc4)c4cc(O)cc(O)c4-c4cc3ccc4O)[C@H](O)c3ccc(c(Cl)c3)Oc3cc2cc(c3O[C@@H]2O[C@H](CO)[C@@H](O)[C@H](O)[C@H]2O[C@H]2C[C@](C)(N)[C@H](O)[C@H](C)O2)Oc2ccc(cc2Cl)[C@H]1O.O=C([O-])C(F)(F)F (stereo partly specified)
MIC (Staphylococcus aureus [1]): ≤ 0.063 µg/mL | MIC (Enterococcus faecium [2]): 8 µg/mL | MIC (Enterococcus faecium [3]): 16 µg/mL | MIC (Acinetobacter baumannii [4]): 32 µg/mL | MIC (Acinetobacter baumannii [5]): 64 µg/mL | MIC (Staphylococcus aureus [6]): 1 µg/mL | MIC (Pseudomonas aeruginosa): 128 µg/mL | MIC (Enterococcus faecium [7]): 8 µg/mL | MIC (Escherichia coli): 32 µg/mL | MIC (Enterococcus faecium [8]): 4 µg/mL | MIC (Klebsiella pneumoniae): > 128 µg/mL

CN[C@H](CC(C)C)C(=O)N[C@H]1C(=O)N[C@@H](CC(N)=O)C(=O)N[C@H]2C(=O)N[C@H]3C(=O)N[C@H](C(=O)N[C@H](C(=O)NCCCSCC(O)COc4ccc(-c5ccc(C(F)(F)F)cc5)cc4)c4cc(O)cc(O)c4-c4cc3ccc4O)[C@H](O)c3ccc(c(Cl)c3)Oc3cc2cc(c3O[C@@H]2O[C@H](CO)[C@@H](O)[C@H](O)[C@H]2O[C@H]2C[C@](C)(N)[C@H](O)[C@H](C)O2)Oc2ccc(cc2Cl)[C@H]1O (stereo partly specified)
MIC (Staphylococcus aureus [1]): 1 µg/mL (≈ 0.55 µM) | MIC (Enterococcus faecium [2]): 2 µg/mL (≈ 1.1 µM) | MIC (Enterococcus faecium [3]): 4 µg/mL (≈ 2.2 µM) | MIC (Acinetobacter baumannii [4]): > 128 µg/mL | MIC (Acinetobacter baumannii [5]): > 128 µg/mL | MIC (Staphylococcus aureus [6]): 1 µg/mL (≈ 0.55 µM) | MIC (Pseudomonas aeruginosa): > 128 µg/mL | MIC (Enterococcus faecium [7]): 4 µg/mL (≈ 2.2 µM) | MIC (Escherichia coli): > 128 µg/mL | MIC (Enterococcus faecium [8]): 2 µg/mL (≈ 1.1 µM) | MIC (Klebsiella pneumoniae): > 128 µg/mL

CN[C@H](CC(C)C)C(=O)N[C@H]1C(=O)N[C@@H](CC(N)=O)C(=O)N[C@H]2C(=O)N[C@H]3C(=O)N[C@H](C(=O)N[C@H](C(=O)O)c4cc(O)c(CNCCC[S+](C)C[C@H](O)COc5ccccc5)c(O)c4-c4cc3ccc4O)[C@H](O)c3ccc(c(Cl)c3)Oc3cc2cc(c3O[C@@H]2O[C@H](CO)[C@@H](O)[C@H](O)[C@H]2O[C@H]2C[C@](C)(N)[C@H](O)[C@H](C)O2)Oc2ccc(cc2Cl)[C@H]1O.O=C([O-])C(F)(F)F (stereo partly specified)
MIC (Staphylococcus aureus [1]): 2 µg/mL | MIC (Enterococcus faecium [2]): 128 µg/mL | MIC (Enterococcus faecium [3]): > 128 µg/mL | MIC (Acinetobacter baumannii [4]): > 128 µg/mL | MIC (Acinetobacter baumannii [5]): > 128 µg/mL | MIC (Staphylococcus aureus [6]): 16 µg/mL | MIC (Pseudomonas aeruginosa): > 128 µg/mL | MIC (Enterococcus faecium [7]): 4 µg/mL | MIC (Escherichia coli): 64 µg/mL | MIC (Enterococcus faecium [8]): 8 µg/mL | MIC (Klebsiella pneumoniae): > 128 µg/mL

Reference: ChEMBL document CHEMBL6134868, “Novel Aryl Sulfonium Modification on Vancomycin to Tackle MRSA and VRE In Vitro and In Vivo through Dual Enhanced Cell-Wall and Membrane Inhibition” (J Med Chem, 2025)
